The record followed here is US11597746B2, “Cyclic dinucleotides as sting agonists” (JANSSEN BIOTECH, INC., priority 2018, dated 2023).

One assay has as its target human STING (Homo sapiens (Human), UniProt Q86WV6, H232R). Description: STING SPA binding assay. To be noted: for IC50: displacement of [3H]-2′3′-cGAMP from biotinylated recombinant STING (residues 139-379, H232R), read-out: hSTING SPA IC50. A general note: Loss of bound radioactivity is the signal in a displacement assay; it reports binding, not function.
The subject of assay [1] is human STING pathway in THP1-ISG cells. Description: STING human cell reporter assay. In kind it is cell-based. Particulars: IRF-inducible SEAP reporter, 24 h. On the technique in general: In a reporter assay the amount or activity of a reporter protein is the signal.
Experimental: STING Human Cell Reporter Assay
Agonism of the human STING pathway is assessed in THP1-ISG cells (Invivogen, cat #thp-isg) derived from human THP1 monocyte cell line by stable integration of an interferon regulatory factor (IRF)-inducible SEAP reporter construct. THP1-Blue ISG cells express a secreted embryonic alkaline phosphatase (SEAP) reporter gene under the control of an ISG54 minimal promoter in conjunction with five interferon (IFN)-stimulated response elements. As a result, THP1-Blue ISG cells allow the monitoring of IRF activation by determining the activity of SEAP. The levels of IRF-induced SEAP in the cell culture supernatant are readily assessed with alkaline phosphatase detection medium, a SEAP detection reagent. These cells are resistant to Zeocin. 2′3′cGAMP was used as a positive control in this assay. To run the assay, 60,000 cells were dispensed in 30 μL/well of a white, opaque bottom tissue culture treated 384-well plate.
Test compounds were added in a volume of 10 μL (1% DMSO final concentration). Compounds are initially prepared in 100% DMSO, spotted on an intermediate dilution plate and then diluted in media prior to transfer. The assay was incubated for 24 h at 37° C., 5% CO2 then plates were centrifuged at 1200 rpm (120×g) for 5 min. After final incubation, 90 μL of alkaline phosphatase detection medium-substrate was added to each well of a new 384-well clear plate and 10 μL of the cell supernatant was transferred from the assay plate to the new alkaline phosphatase detection medium-plate using a Biomek FX and mixed 4 times.

human STING, sequence (Q86WV6 139-379 H232R): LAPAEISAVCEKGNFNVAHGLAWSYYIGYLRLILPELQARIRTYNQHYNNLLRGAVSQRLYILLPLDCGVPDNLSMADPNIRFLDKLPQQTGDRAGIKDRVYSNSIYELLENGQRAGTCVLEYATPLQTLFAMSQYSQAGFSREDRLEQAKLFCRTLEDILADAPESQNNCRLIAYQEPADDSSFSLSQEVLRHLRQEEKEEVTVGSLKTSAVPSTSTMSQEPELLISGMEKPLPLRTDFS

Turning to `Nc1nc2c(ncn2[C@@H]2O[C@@H]3COP(=O)(O)O[C@H]4[C@@H](F)[C@H](n5cnc6c(N)ncnc65)O[C@@H]4CNS(=O)(=O)O[C@H]3[C@H]2OCc2ccccc2)c(=O)[nH]1` [Compound 46], the 50% inhibitory concentration (IC50) (in general, the concentration that gives 50% inhibition) on human STING is > 100000 nM. Moreover, the EC50 – broadly, the concentration giving half of the maximal effect – in assay [1] is > 100000 nM. Turning to `Nc1nc2c(ncn2[C@@H]2O[C@@H]3CO[P@](=O)(S)O[C@H]4[C@@H](O)[C@H](n5cnc6c(N)ncnc65)O[C@@H]4CNS(=O)(=O)O[C@H]3[C@H]2F)c(=O)[nH]1` [Compound 14-S], the EC50 in assay [1] is > 100000 nM. The same measure, in the same setting: the value for `Nc1ncnc2c1ncn2[C@@H]1O[C@@H]2CNS(=O)(=O)O[C@H]3[C@H]4OO[C@]3(CO[P@@](=O)(S)O[C@H]2[C@H]1F)O[C@H]4n1cnc2c(N)ncnc21` [Compound 37-R] was 880 nM. Still for that read-out and setting: the value for `Nc1ncnc2c1ncn2[C@H]1C[C@@H]2NS(=O)(=O)OC[C@H]3O[C@@H](n4cnc5c(=O)[nH]cnc54)[C@H](F)[C@@H]3OP(=O)(O)OC[C@H]2O1` [Compound 28] was 730 nM. Still for that read-out and setting: the same measure for `Nc1ncnc2c1ncn2[C@@H]1O[C@@H]2CNS(=O)(=O)O[C@H]3[C@@H](F)[C@H](n4cnc5c(=O)[nH]cnc54)O[C@@H]3CO[P@](=O)(S)O[C@H]2[C@H]1F` [Compound 17-S]: 4230 nM; for `Nc1nc2c(ncn2[C@@H]2O[C@@H]3COP(=O)(O)O[C@H]4[C@@H](O)[C@H](n5cnc6c(N)ncnc65)O[C@@H]4CNS(=O)(=O)O[C@H]3[C@H]2F)c(=O)[nH]1` [Compound 9]: 6240 nM. In turn, `Nc1ncnc2c1ncn2[C@@H]1O[C@@H]2CNS(=O)(=O)O[C@H]3C[C@H](n4cnc5c(=O)[nH]ncc54)O[C@@H]3COP(=O)(O)O[C@H]2[C@H]1F` [Compound 43] gave a concentration giving a half-maximal response (EC50) in assay [1] of 730 nM.

In assay [1], `Nc1nc2c(ncn2[C@@H]2O[C@@H]3CNS(=O)(=O)O[C@H]4[C@H](F)[C@H](n5cnc6c(N)ncnc65)O[C@@H]4CO[P@](=O)(S)O[C@H]3[C@H]2F)c(=O)[nH]1` (single isomer, unassigned) [Compound 16-S] gave an EC50 of 4.6 nM. Still for that read-out and setting: the value for `Nc1ncnc2c1ncn2[C@@H]1O[C@@H]2CNS(=O)(=O)O[C@H]3C[C@H](n4nnc5c(=O)[nH]cnc54)O[C@@H]3COP(=O)(O)O[C@H]2[C@H]1F` [Compound 42] was 100000 nM; that for `Nc1ncnc2c1ncn2[C@@H]1O[C@@H]2CNS(=O)(=O)O[C@H]3[C@@H](F)[C@H](n4cnc5c(N)ncnc54)O[C@@H]3CO[P@](=O)(S)O[C@H]2[C@H]1F` [Compound 20-S] was 61800 nM; that for `Nc1ncnc2c1ncn2[C@@H]1O[C@@H]2CNS(=O)(=O)O[C@H]3C[C@H](n4cc(F)c5c(N)ncnc54)O[C@@H]3COP(=O)(O)O[C@H]2[C@H]1F` [Compound 29] was > 100000 nM. Still for that read-out and setting: the value for `Nc1ncnc2c1ncn2[C@@H]1O[C@@H]2CNS(=O)(=O)O[C@H]3[C@@H](F)[C@H](n4cnc5c(N)ncnc54)O[C@@H]3CO[P@@](=O)(S)O[C@H]2[C@H]1F` [Compound 20-R] was 350 nM.

On to `Nc1nc2c(ncn2[C@@H]2O[C@@H]3COP(=O)(O)O[C@H]4[C@@H](F)[C@H](n5cnc6c(N)ncnc65)O[C@@H]4CNS(=O)(=O)O[C@H]3[C@@H]2F)c(=O)[nH]1` [Compound 26], for which the concentration giving a half-maximal response (EC50) in assay [1] came to 30 nM. Still for that read-out and setting: the value for `Nc1ncnc2c1ncn2[C@@H]1O[C@@H]2CNS(=O)(=O)O[C@H]3[C@@H](F)[C@H](n4cnc5c(=O)[nH]cnc54)O[C@@H]3CO[P@@](=O)(S)O[C@H]2[C@H]1F` [Compound 17-R] was 980 nM; that for `Nc1nc2c(ncn2[C@@H]2O[C@@H]3CO[P@@](=O)(S)O[C@H]4[C@@H](F)[C@H](n5cnc6c(N)ncnc65)O[C@@H]4CNS(=O)(=O)O[C@H]3[C@@H]2F)c(=O)[nH]1` (single isomer, unassigned) [Compound 34-R] was 23700 nM; that for `Nc1ncnc2c1ncn2[C@@H]1O[C@@H]2CNS(=O)(=O)O[C@H]3C[C@H](n4cnc5cncnc54)O[C@@H]3COP(=O)(O)O[C@H]2[C@H]1F` [Compound 33] was 730 nM. Still for that read-out and setting: the value for `Nc1nc2c(ncn2[C@@H]2O[C@@H]3CNS(=O)(=O)O[C@H]4[C@H](F)[C@H](n5cnc6c(N)ncnc65)O[C@@H]4COP(=O)(O)O[C@H]3[C@H]2F)c(=O)[nH]1` [Compound 13] was 20 nM; that for `Nc1nc2c(ncn2[C@@H]2O[C@@H]3CO[P@@](=O)(S)O[C@H]4[C@@H](O)[C@H](n5cnc6c(N)ncnc65)O[C@@H]4CNS(=O)(=O)O[C@H]3[C@H]2F)c(=O)[nH]1` [Compound 14-R] was 1830 nM; that for `Nc1ncnc2c1ncn2[C@@H]1O[C@@H]2CNS(=O)(=O)O[C@H]3[C@H]4OO[C@]3(CO[P@](=O)(S)O[C@H]2[C@H]1F)O[C@H]4n1cnc2c(N)ncnc21` [Compound 37-S] was 640 nM. The same measure, in the same setting: the value for `Nc1nc2c(ncn2[C@@H]2O[C@@H]3CO[P@](=O)(S)O[C@H]4[C@@H](F)[C@H](n5cnc6c(N)ncnc65)O[C@@H]4CNS(=O)(=O)O[C@H]3[C@H]2F)c(=O)[nH]1` (single isomer, unassigned) [Compound 18-S] was 21100 nM. The molecule `CO[C@@H]1[C@@H]2OS(=O)(=O)NC[C@H]3O[C@@H](n4cnc5c(N)ncnc54)[C@H](F)[C@@H]3OP(=O)(O)OC[C@H]2O[C@H]1n1cnc2c(=O)[nH]c(N)nc21` [Compound 4] showed a half-maximal effective concentration (EC50) in assay [1] of 64100 nM. On the same count and under the same terms, the same measure for `Nc1nc(N)c2ncn([C@@H]3O[C@@H]4COP(=O)(O)O[C@H]5[C@@H](F)[C@H](n6cnc7c(N)ncnc76)O[C@@H]5CNS(=O)(=O)O[C@H]4[C@H]3F)c2n1` [Compound 44]: 2650 nM; for `Nc1ncnc2c1ncn2[C@@H]1O[C@@H]2CNS(=O)(=O)O[C@H]3C[C@H](n4ncc5c(=O)[nH]cnc54)O[C@@H]3COP(=O)(O)O[C@H]2[C@H]1F` [Compound 39]: > 100000 nM.

The molecule `Nc1ncnc2c1ncn2[C@@H]1O[C@@H]2CO[P@@](=O)(S)O[C@H]3[C@@H](F)[C@H](n4cnc5c(=O)[nH]cnc54)O[C@@H]3CNS(=O)(=O)O[C@H]2[C@H]1F` (single isomer, unassigned) [Compound 31-R] came in with a concentration for a half-maximal effect (EC50) in assay [1] of 930 nM.

For `Nc1ncnc2c1ncn2[C@@H]1O[C@@H]2CNS(=O)(=O)O[C@H]3[C@@H](F)[C@H](n4cnc5c(N)ncnc54)O[C@@H]3CNS(=O)(=O)O[C@H]2[C@H]1F` [Compound 47], the midpoint of the response in assay [1], the EC50, lay at 290 nM. As for `Nc1ncnc2c1ncn2[C@@H]1O[C@@H]2CNS(=O)(=O)O[C@H]3[C@@H](F)[C@H](n4cnc5c(N)ncnc54)O[C@@H]3CO[P@@](=O)(S)O[C@H]2[C@H]1F` [Compound 2], in assay [1], the EC50 stood at 12 nM.

Regarding `Nc1nc2c(ncn2[C@@H]2O[C@@H]3CO[P@](=O)(S)O[C@H]4[C@@H](F)[C@H](n5cnc6c(N)ncnc65)O[C@@H]4CNS(=O)(=O)O[C@H]3[C@@H]2F)c(=O)[nH]1` (single isomer, unassigned) [Compound 34-S], the EC50 in assay [1] was 47700 nM. Same read-out and setting: the same measure for `Nc1ncnc2c1ncn2[C@@H]1O[C@@H]2CO[P@](=O)(S)O[C@H]3[C@@H](F)[C@H](n4cnc5c(=O)[nH]cnc54)O[C@@H]3COS(=O)(=O)O[C@H]2[C@H]1F` (single isomer, unassigned) [Compound 22-S]: 97 nM; for `Nc1nc2c(ncn2[C@@H]2O[C@@H]3CO[P@@](=O)(S)O[C@H]4[C@@H](F)[C@H](n5cnc6c(N)ncnc65)O[C@@H]4CNS(=O)(=O)O[C@H]3[C@H]2F)c(=O)[nH]1` (single isomer, unassigned) [Compound 18-R]: 93 nM; for `Nc1nc2c(ncn2[C@@H]2O[C@@H]3CNS(=O)(=O)O[C@H]4[C@H](F)[C@H](n5cnc6c(N)ncnc65)O[C@@H]4CO[P@@](=O)(S)O[C@H]3[C@H]2F)c(=O)[nH]1` (single isomer, unassigned) [Compound 16-R]: 1830 nM. Still for that read-out and setting: the same measure for `Nc1ncnc2c1ncn2[C@@H]1O[C@@H]2CNS(=O)(=O)O[C@H]3C[C@H](n4cnc5cc(Cl)c(Cl)cc54)O[C@@H]3COP(=O)(O)O[C@H]2[C@H]1F` [Compound 32]: 180 nM. Consider `COc1ccc(CO[C@@H]2[C@@H]3OS(=O)(=O)NC[C@H]4O[C@@H](n5cnc6c(N)ncnc65)[C@H](F)[C@@H]4OP(=O)(O)OC[C@H]3O[C@H]2n2cnc3c(N)ncnc32)cc1` [Compound 15-R], for which, on human STING, the IC50 was > 100000 nM. Also, in assay [1], the EC50 is > 100000 nM. Molecule `Nc1ncnc2c1ncn2[C@@H]1O[C@@H]2CO[P@](=O)(S)O[C@H]3[C@@H](F)[C@H](n4cnc5c(=O)[nH]cnc54)O[C@@H]3CNS(=O)(=O)O[C@H]2[C@H]1F` (single isomer, unassigned) [Compound 31-S] had an EC50 in assay [1] of 970 nM.

Take `Nc1ncnc2c1ncn2[C@@H]1O[C@@H]2COP(=O)(O)O[C@H]3C[C@H](n4cnc5c(N)ncnc54)O[C@@H]3CNS(=O)(=O)O[C@H]2[C@H]1F` [Compound 6]: a half-maximal effect in assay [1] (EC50) was put at 2940 nM. On the same count and under the same terms, the value for `Nc1ncnc2c1ncn2[C@@H]1O[C@@H]2CO[P@@](=O)(S)O[C@H]3[C@@H](F)[C@H](n4cnc5c(=O)[nH]cnc54)O[C@@H]3COS(=O)(=O)O[C@H]2[C@H]1F` (single isomer, unassigned) [Compound 22-R] was 29 nM. On to `Nc1ncnc2c1ncn2[C@@H]1O[C@@H]2COP(=O)(O)O[C@H]3[C@@H](F)[C@H](n4cnc5c(=O)[nH]cnc54)O[C@@H]3CNS(=O)(=O)O[C@H]2[C@H]1F` [Compound 24], for which the EC50 in assay [1] came to 70 nM. In the case of `Nc1nc2c(ncn2[C@@H]2O[C@@H]3COP(=O)(O)O[C@H]4[C@@H](O)[C@H](n5cnc6c(=O)[nH]c(N)nc65)O[C@@H]4COP(=O)(O)O[C@H]3[C@H]2O)c(=O)[nH]1` [cyclic-di-GMP, reference compound], the “values in STING SPA binding assay” value on human STING (natural ligand) is listed as “within the expected range”. Take `Nc1ncnc2c1ncn2[C@@H]1O[C@@H]2CNS(=O)(=O)O[C@H]3[C@@H](F)[C@H](n4cnc5c(N)ncnc54)O[C@@H]3CO[P@](=O)(S)O[C@H]2[C@H]1F` (single isomer, unassigned) [Compound 3]: a half-maximal response in assay [1] (EC50) required 540 nM. For the molecule `Nc1ncnc2c1ncn2[C@@H]1O[C@@H]2CNS(=O)(=O)O[C@H]3[C@@H](F)[C@H](n4cnc5c(N)ncnc54)O[C@@H]3COP(=O)(O)O[C@H]2[C@H]1F` [Compound 1], the EC50 in assay [1] was 160 nM.
